Assay results: paper PMC9599461, “Stereoselectivity in the Membrane Transport of Phenylethylamine Derivatives by Human Monoamine Transporters and Organic Cation Transporters 1, 2, and 3” (Biomolecules, 2022)

Legend:
OCT2 = target: T1, OCT2 (Homo sapiens, UniProt O15244); experiment: Stereoselective uptake into OCT2 (wild-type)-overexpressing HEK293 cells; conditions: for Clint ± SEM / selectivity ratio at 2 min: OCT2; for Clint ± SEM: quotient of vmax over Km; for selectivity ratio at 2 min: human, ratio between enantiomers; for Vmax ± SEM / Km: HEK293 cells overexpressing human OCT2, racemic substrate, two minutes; for Vmax ± SEM: net uptake; for Km: read-out: Km ± SEM, net uptake minus empty vector control
T1 sequence (O15244 1-555 S270A): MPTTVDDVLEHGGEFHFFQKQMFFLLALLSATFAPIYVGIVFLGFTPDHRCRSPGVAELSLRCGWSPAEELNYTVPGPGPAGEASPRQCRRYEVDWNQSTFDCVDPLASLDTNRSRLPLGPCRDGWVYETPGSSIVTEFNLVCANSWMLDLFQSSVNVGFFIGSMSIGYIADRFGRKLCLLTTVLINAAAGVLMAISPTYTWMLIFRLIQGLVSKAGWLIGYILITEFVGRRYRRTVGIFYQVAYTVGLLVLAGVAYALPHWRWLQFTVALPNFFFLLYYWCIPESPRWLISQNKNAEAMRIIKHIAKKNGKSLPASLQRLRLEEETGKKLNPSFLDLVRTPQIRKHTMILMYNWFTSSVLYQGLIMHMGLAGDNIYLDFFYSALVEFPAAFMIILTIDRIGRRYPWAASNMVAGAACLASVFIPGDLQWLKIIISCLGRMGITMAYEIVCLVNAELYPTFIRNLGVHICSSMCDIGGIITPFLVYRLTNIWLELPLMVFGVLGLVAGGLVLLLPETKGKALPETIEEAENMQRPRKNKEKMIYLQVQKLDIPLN
Description: (§1) All transport experiments were carried out in HEK293 cells stably overexpressing human MATs or OCTs. […] All cells were regularly cultivated in DMEM supplemented with 10% (v/v) FCS, penicillin (100 U/mL) and streptomycin (100 μg/mL)and kept in culture for no longer than 30 passages.
(§2) For the uptake experiments, 300,000 cells were plated in poly-D-lysine precoated 24-well plates 48 h ahead of the transport experiment. On the day of experiment, cells were initially washed once with 37 °C pre-warmed HBSS+ (Hanks buffered salt solution supplemented with 10 mM HEPES) and subsequently incubated with the substrates dissolved in pre-warmed HBSS+ for exactly two minutes. Incubation was stopped by adding ice-cold HBSS+ followed by two washing steps. After this, cells were lysed with 80% acetonitrile containing 10 ng/mL milnacipran as internal standard for high-performance liquid chromatography coupled to tandem mass spectrometry (HPLC-MS/MS) analysis. For every experiment, two additional wells per cell line were lysed using RIPA buffer for protein quantification. Total protein was quantified using the bicinchoninic acid assay [42]. This was later used for normalization of the uptake data.
(§3) Intracellularly accumulated test substances were quantified by HPLC-MS/MS analysis using a Shimadzu Nexera HPLC system with a SIL-30AC autosampler, a CTO-20AC column oven, a LC-30AD pump, and a CBM-20A controller (Shimadzu, Kyoto, Japan). Stereoselective chromatography was carried out on a [sequence] CBH HPLC column (100 × 3 mm inner dimension with 5 μM particle size; Sigma-Aldrich, Darmstadt, Germany) with a corresponding 10 × 3 mm guard column. Reversed phased chromatography was carried out using an ammonium acetate (NH4Ac) buffered aqueous mobile phase with isopropyl alcohol (IPA) as organic solvent. […] The order of elution of the enantiomers was obtained from available reference literature [43] or by applying enantiopure reference compounds to the chiral HPLC. […] However, in every other case where the order of elution was available, the (R)-enantiomer eluted first. Given the structural similarity of the investigated substances and the fact that separation was performed on the same column with almost identical mobile phases, we assume that this order of elution for our compound set is always the (R)- before the (S)-enantiomer.
(§4) Detection was performed with an API 4000 tandem mass spectrometer (AB SCIEX, Darmstadt, Germany) operating in multiple-reaction-monitoring mode. Quantification was performed using the Analyst 1.6.2 software (AB SCIEX, Darmstadt, Germany) and quantified by comparison to standard curves with known concentrations.
(§5) All uptake data were normalized to protein content to account for variation in the number of seeded sells. Transporter-mediated net uptake was calculated by subtracting uptake into empty vector-transfected control cells from uptake into transporter-transfected cells. Kinetic parameters were then determined after non-linear regression following the Michaelis–Menten equation (v = vmax × [S]/(Km + [S])) using GraphPad Prism (Version 5.01 for Windows, GraphPad Software, La Jolla, CA, USA). Vmax refers to the maximum transport velocity and Km is defined as the substance concentration required to reach half of vmax. The intrinsic clearance Clint was calculated as the quotient of vmax over Km.
(§6) HEK293 cells stably overexpressing wild-type or mutant OCT2 were incubated with 100 μM racemic substance for two minutes.

OCT1 = target: T2, OCT1 (Homo sapiens, UniProt O15245); experiment: Stereoselective uptake into OCT1-overexpressing HEK293 cells; conditions: for Clint ± SEM / selectivity ratio at 2 min / Stereoselectivity Vmax / Stereoselectivity ClInt / Stereoselectivity Km: OCT1; for Clint ± SEM: quotient of vmax over Km; for selectivity ratio at 2 min: human; for selectivity ratio at 2 min / Stereoselectivity Vmax / Stereoselectivity ClInt / Stereoselectivity Km: ratio between enantiomers; for Vmax ± SEM / Km: HEK293 cells overexpressing human OCT1, racemic substrate, two minutes; for Vmax ± SEM: net uptake; for Stereoselectivity ClInt: given as for (R) or for 1 (also 1.00-fold for 1/2); for Km: read-out: Km ± SEM, net uptake minus empty vector control
T2 sequence (O15245 1-554): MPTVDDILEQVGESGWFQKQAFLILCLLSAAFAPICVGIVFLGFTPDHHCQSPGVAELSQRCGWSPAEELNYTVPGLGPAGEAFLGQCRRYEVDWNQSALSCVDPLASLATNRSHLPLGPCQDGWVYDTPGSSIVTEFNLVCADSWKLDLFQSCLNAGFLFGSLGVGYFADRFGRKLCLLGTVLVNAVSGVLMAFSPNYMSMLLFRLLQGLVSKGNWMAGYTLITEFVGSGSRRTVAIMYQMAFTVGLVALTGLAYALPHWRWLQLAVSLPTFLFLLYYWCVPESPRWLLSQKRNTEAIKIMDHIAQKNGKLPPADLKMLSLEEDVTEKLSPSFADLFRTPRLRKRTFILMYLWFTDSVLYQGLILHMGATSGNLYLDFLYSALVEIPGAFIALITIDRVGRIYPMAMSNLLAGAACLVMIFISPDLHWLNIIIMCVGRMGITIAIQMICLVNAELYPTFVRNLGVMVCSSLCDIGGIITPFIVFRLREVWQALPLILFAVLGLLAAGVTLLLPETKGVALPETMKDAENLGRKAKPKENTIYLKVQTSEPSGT

OCT2 A270S variant = experiment: Stereoselective uptake into OCT2 A270S variant-overexpressing HEK293 cells; conditions: OCT2 wild-type versus A270S, 100 μM racemic substance, two minutes, given as for WT
Description: as §1, §2, §3, §4, §5, §6

NET = NET (Homo sapiens, UniProt P23975); experiment: Stereoselective uptake into NET-overexpressing HEK293 cells; conditions: for Clint ± SEM / Stereoselectivity Vmax / Stereoselectivity Km / Stereoselectivity ClInt: NET; for Clint ± SEM: quotient of vmax over Km; for Stereoselectivity Vmax / Stereoselectivity Km / Stereoselectivity ClInt: ratio between enantiomers; for Stereoselectivity Km: given as for (R) or for 1 (first-eluting); for Vmax ± SEM / Km: HEK293 cells overexpressing human NET, racemic substrate, two minutes; for Vmax ± SEM: net uptake; for Km: read-out: Km ± SEM, net uptake minus empty vector control
NET, sequence (P23975 whole entry): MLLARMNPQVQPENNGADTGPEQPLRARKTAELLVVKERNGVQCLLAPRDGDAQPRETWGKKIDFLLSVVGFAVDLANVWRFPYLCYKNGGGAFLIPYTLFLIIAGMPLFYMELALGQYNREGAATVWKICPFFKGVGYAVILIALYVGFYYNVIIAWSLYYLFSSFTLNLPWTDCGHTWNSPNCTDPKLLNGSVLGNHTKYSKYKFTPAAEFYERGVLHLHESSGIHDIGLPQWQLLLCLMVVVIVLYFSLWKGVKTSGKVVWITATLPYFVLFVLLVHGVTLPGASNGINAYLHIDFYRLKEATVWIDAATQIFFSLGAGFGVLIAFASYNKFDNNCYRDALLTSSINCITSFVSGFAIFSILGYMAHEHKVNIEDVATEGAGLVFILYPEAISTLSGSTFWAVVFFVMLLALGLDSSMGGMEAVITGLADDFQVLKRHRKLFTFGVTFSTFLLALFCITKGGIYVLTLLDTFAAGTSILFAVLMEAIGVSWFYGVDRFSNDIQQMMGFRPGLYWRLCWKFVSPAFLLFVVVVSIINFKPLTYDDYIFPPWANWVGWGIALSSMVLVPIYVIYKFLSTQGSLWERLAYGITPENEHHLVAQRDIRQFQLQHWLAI

OCT3 = target: T3, OCT3 (Homo sapiens, UniProt O75751); experiment: Stereoselective uptake into OCT3-overexpressing HEK293 cells; conditions: for Clint ± SEM / Stereoselectivity Vmax / Stereoselectivity Km / Stereoselectivity ClInt: OCT3; for Clint ± SEM: quotient of vmax over Km; for Stereoselectivity Vmax / Stereoselectivity Km / Stereoselectivity ClInt: ratio between enantiomers; for Stereoselectivity Vmax: given as for (R) or for 1; for Stereoselectivity Km: given as for (R) or for 1 (first-eluting); for Vmax ± SEM / Km: HEK293 cells overexpressing human OCT3, racemic substrate, two minutes; for Vmax ± SEM: net uptake; for Km: read-out: Km ± SEM, net uptake minus empty vector control
T3 sequence (O75751 1-556): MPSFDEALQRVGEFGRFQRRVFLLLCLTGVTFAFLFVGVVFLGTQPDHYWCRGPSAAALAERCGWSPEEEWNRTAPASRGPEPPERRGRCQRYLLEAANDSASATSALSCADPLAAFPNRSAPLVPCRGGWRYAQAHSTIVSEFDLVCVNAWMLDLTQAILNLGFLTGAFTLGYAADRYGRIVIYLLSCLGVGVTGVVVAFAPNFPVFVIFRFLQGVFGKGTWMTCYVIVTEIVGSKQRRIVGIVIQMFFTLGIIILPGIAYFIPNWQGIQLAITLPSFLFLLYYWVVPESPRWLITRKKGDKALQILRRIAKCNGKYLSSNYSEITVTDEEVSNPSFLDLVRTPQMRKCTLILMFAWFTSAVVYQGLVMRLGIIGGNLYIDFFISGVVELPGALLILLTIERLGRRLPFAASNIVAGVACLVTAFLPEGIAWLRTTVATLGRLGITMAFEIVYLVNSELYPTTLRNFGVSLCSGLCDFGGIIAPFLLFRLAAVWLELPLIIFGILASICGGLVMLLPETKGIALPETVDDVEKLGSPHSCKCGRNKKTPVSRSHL
Description: as §1, §2
Intracellularly accumulated test substances were quantified by HPLC-MS/MS analysis using a Shimadzu Nexera HPLC system with a SIL-30AC autosampler, a CTO-20AC column oven, a LC-30AD pump, and a CBM-20A controller (Shimadzu, Kyoto, Japan). Stereoselective chromatography was carried out on a [sequence] CBH HPLC column (100 × 3 mm inner dimension with 5 μM particle size; Sigma-Aldrich, Darmstadt, Germany) with a corresponding 10 × 3 mm guard column. Reversed phased chromatography was carried out using an ammonium acetate (NH4Ac) buffered aqueous mobile phase with isopropyl alcohol (IPA) as organic solvent. […] The order of elution of the enantiomers was obtained from available reference literature [43] or by applying enantiopure reference compounds to the chiral HPLC. […] Given the structural similarity of the investigated substances and the fact that separation was performed on the same column with almost identical mobile phases, we assume that this order of elution for our compound set is always the (R)- before the (S)-enantiomer.
as §4, §5

DAT = DAT (Homo sapiens, UniProt Q01959); experiment: Stereoselective uptake into DAT-overexpressing HEK293 cells; conditions: for Clint ± SEM: quotient of vmax over Km; for Stereoselectivity Vmax / Stereoselectivity Km / Stereoselectivity ClInt: ratio between enantiomers; for Stereoselectivity Vmax: given as for (S) or for 2; for Stereoselectivity Km: given as for (S) or for 2 (second-eluting); for Stereoselectivity ClInt: printed as for (R) or for 1 (also 1.00-fold for (R/S)); for Vmax ± SEM / Km: HEK293 cells overexpressing human DAT, racemic substrate, two minutes; for Vmax ± SEM: net uptake; for Km: read-out: Km ± SEM, net uptake minus empty vector control
DAT, sequence (Q01959 whole entry): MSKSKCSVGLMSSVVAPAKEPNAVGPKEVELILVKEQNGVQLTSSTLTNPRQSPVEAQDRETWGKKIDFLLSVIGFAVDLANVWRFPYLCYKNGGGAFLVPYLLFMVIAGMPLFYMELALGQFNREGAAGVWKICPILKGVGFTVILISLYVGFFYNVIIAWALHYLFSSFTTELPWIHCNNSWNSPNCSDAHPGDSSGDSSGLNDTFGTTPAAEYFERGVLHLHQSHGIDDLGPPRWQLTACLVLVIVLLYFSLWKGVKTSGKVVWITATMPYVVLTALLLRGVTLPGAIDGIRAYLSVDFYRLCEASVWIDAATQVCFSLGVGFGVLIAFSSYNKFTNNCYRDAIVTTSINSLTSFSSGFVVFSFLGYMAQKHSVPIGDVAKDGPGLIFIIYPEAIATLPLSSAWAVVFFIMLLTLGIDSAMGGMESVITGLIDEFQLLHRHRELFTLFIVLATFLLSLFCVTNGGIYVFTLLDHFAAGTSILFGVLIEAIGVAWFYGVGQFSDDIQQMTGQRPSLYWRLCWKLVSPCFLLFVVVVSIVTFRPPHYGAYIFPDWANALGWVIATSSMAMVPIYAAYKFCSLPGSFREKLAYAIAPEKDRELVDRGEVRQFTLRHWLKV

SERT = SERT (Homo sapiens, UniProt P31645); experiment: Stereoselective uptake into SERT-overexpressing HEK293 cells; conditions: SERT; for Saturable net uptake: result in words
SERT, sequence (P31645 whole entry): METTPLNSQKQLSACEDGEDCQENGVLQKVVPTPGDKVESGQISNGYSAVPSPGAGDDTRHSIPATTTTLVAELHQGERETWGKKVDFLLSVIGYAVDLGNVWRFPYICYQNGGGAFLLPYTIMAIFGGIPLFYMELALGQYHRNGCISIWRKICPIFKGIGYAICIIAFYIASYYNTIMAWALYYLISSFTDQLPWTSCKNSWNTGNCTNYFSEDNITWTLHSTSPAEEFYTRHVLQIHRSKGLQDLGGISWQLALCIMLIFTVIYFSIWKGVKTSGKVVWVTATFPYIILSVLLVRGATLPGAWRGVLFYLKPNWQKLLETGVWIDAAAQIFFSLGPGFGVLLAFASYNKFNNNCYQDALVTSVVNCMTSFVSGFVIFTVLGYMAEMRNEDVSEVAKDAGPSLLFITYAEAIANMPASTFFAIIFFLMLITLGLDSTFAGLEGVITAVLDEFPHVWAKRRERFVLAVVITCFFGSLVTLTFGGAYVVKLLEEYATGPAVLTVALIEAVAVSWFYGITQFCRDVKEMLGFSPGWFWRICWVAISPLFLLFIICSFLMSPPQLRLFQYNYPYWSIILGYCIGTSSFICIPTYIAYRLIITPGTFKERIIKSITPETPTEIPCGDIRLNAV

[1] = Stereoselectivity Km, given as for (R) or for 1 (first-eluting)
[2] = ratio between enantiomers, given as for (S) or for 2
[3] = given as for (R) or for 1 (first-eluting)
[4] = given as for (R) or for 1 (also 1.00-fold for 1/2)

Row | Compound | Clint ± SEM (OCT2) | Clint ± SEM (OCT1) | Clint ± SEM (NET) | Stereoselectivity Km (NET) [fold] | Stereoselectivity ClInt (NET; given as for (S) or for 2) [fold] | Clint ± SEM (OCT3) | Stereoselectivity Vmax (OCT3) [fold] | Stereoselectivity Km (OCT3) [fold] | Vmax ± SEM (OCT2) | Vmax ± SEM (OCT1) | Stereoselectivity Vmax (OCT1; given as for (R) or for 1) [fold] | Stereoselectivity ClInt (OCT1) [fold] | Km (OCT1) [µM] | Vmax ± SEM (NET) | Km (NET) [µM] | Vmax ± SEM (OCT3) | Km (OCT3) [µM] | Clint ± SEM (DAT; DAT) | Vmax ± SEM (DAT) | Km (DAT) [µM] | also measured
1 | COc1cc(C(O)CN)ccc1O (single isomer, unassigned) [Normetanephrine-2, Normetanephrine] | 5.92 mL × g Protein^−1 × min^−1 | 2.65 mL × g Protein^−1 × min^−1 | 3.47 mL × g Protein^−1 × min^−1 | 1.35 | 1.28 | 21.6 mL × g Protein^−1 × min^−1 | 1.09 | 1.22 |  |  |  |  |  |  |  |  |  |  |  |  | selectivity ratio at 2 min (OCT2; Stereoselectivity ClInt, given as for (R) or for 1): 1.56; selectivity ratio at 2 min (OCT2; [1]): 1.32; selectivity ratio at 2 min (OCT2; Stereoselectivity Vmax, given as for (S) or for 2): 2.06; selectivity ratio at 2 min (OCT1; Stereoselectivity ClInt, given as for (S) or for 2): 1.08; selectivity ratio at 2 min (OCT1; [1]): 1.59; selectivity ratio at 2 min (OCT1; Stereoselectivity Vmax, given as for (R) or for 1): 1.47; Transporter selectivity (OCT2 A270S variant; listed as (S)-Normetanephrine): 1.08 fold; Stereoselectivity Vmax (NET; given as for (R) or for 1): 1.06 fold; Stereoselectivity ClInt (OCT3; given as for (S) or for 2): 1.12 fold; Saturable net uptake (DAT; DAT, result in words): No saturable net uptake; Clint ± SEM (SERT; quotient of vmax over Km): 4.05 mL × g Protein^−1 × min^−1; Stereoselectivity Km (SERT; ratio between enantiomers, given as for (R) or for 1 (first-eluting)): 1.08 fold; Stereoselectivity ClInt (SERT; [2]): 1.28 fold; Stereoselectivity Vmax (SERT; [2]): 1.67 fold
2 | NC[C@H](O)c1ccccc1 [(R)-Bisnorephedrine] | 22.6 mL × g Protein^−1 × min^−1 | 1.17 mL × g Protein^−1 × min^−1 | 46.1 mL × g Protein^−1 × min^−1 | 1.01 | 1.24 | 4.00 mL × g Protein^−1 × min^−1 | 1.13 | 1.08 | 847 pmol × mg Protein^−1 × min^−1 | 218 pmol × mg Protein^−1 × min^−1 | 1.19 | 1.03 | 187 | 9.50 pmol × mg Protein^−1 × min^−1 | 0.206 | 662 pmol × mg Protein^−1 × min^−1 | 165 | 6.21 mL × g Protein^−1 × min^−1 | 27.2 pmol × mg Protein^−1 × min^−1 | 4.38 | Stereoselectivity Km (OCT1; [3]): 1.15 fold; Transporter selectivity (OCT2 A270S variant): 1.50 fold; Stereoselectivity Vmax (NET; given as for (S) or for 2): 1.23 fold; Stereoselectivity ClInt (OCT3; [4]): 1.04 fold; Stereoselectivity Vmax (DAT; DAT): 1.17 fold; Stereoselectivity Km (DAT; DAT): 1.18 fold; Stereoselectivity ClInt (DAT; DAT): 1.01 fold; Saturable net uptake (SERT): No saturable net uptake
3 | NC[C@@H](O)c1ccccc1 [(S)-Bisnorephedrine] | 10.0 mL × g Protein^−1 × min^−1 | 1.13 mL × g Protein^−1 × min^−1 | 57.4 mL × g Protein^−1 × min^−1 | 1.01 | 1.24 | 3.85 mL × g Protein^−1 × min^−1 | 1.13 | 1.08 | 602 pmol × mg Protein^−1 × min^−1 | 184 pmol × mg Protein^−1 × min^−1 | 1.19 | 1.03 | 162 | 11.7 pmol × mg Protein^−1 × min^−1 | 0.204 | 589 pmol × mg Protein^−1 × min^−1 | 153 | 6.15 mL × g Protein^−1 × min^−1 | 31.7 pmol × mg Protein^−1 × min^−1 | 5.16 | Stereoselectivity Km (OCT1; [3]): 1.15 fold; Transporter selectivity (OCT2 A270S variant): 1.24 fold; Stereoselectivity Vmax (NET; given as for (S) or for 2): 1.23 fold; Stereoselectivity ClInt (OCT3; [4]): 1.04 fold; Stereoselectivity Vmax (DAT; DAT): 1.17 fold; Stereoselectivity Km (DAT; DAT): 1.18 fold; Stereoselectivity ClInt (DAT; DAT): 1.01 fold; Saturable net uptake (SERT): No saturable net uptake
4 | CNC[C@@H](O)c1ccc(O)c(O)c1 [(S)-Epinephrine] | 6.83 ± 2.57 mL × g Protein^−1 × min^−1 |  |  |  |  | 11.7 ± 4.9 mL × g Protein^−1 × min^−1 |  |  | 3993 ± 360 pmol × mg Protein^−1 × min^−1 | 2514 ± 266 pmol × mg Protein^−1 × min^−1 |  |  | 671 ± 230 | 557 ± 22 pmol × mg Protein^−1 × min^−1 | 8.52 ± 1.91 | 5336 ± 502 pmol × mg Protein^−1 × min^−1 | 455 ± 149 | 37.9 ± 14.8 mL × g Protein^−1 × min^−1 | 1226 ± 90 pmol × mg Protein^−1 × min^−1 |  | Km (OCT2): 585 ± 167 µM
5 | (R)-Epinephrine | 14.2 ± 4.0 mL × g Protein^−1 × min^−1 | 4.06 ± 1.37 mL × g Protein^−1 × min^−1 | 91.7 ± 21.3 mL × g Protein^−1 × min^−1 |  |  | 20.9 ± 6.7 mL × g Protein^−1 × min^−1 |  |  | 7277 ± 483 pmol × mg Protein^−1 × min^−1 | 2419 ± 189 pmol × mg Protein^−1 × min^−1 |  |  | 596 ± 155 | 1027 ± 37 pmol × mg Protein^−1 × min^−1 | 11.2 ± 2.2 | 9742 ± 698 pmol × mg Protein^−1 × min^−1 | 466 ± 116 | 64.7 ± 26.7 mL × g Protein^−1 × min^−1 |  | 34 ± 11.6 | Km (OCT2): 513 ± 110 µM
